Data reported in patent US10471030B2, “Immunomodulatory and differentiating function selective retinoid and rexinoid compounds in combination with immune modulators for cancer immunotherapy” (Io Therapeutics, Inc., priority 2017, dated 2019).

Key:
[1] = system: Naive CD4+ CD25− FoxP3− cells; experiment: Treg cell differentiation from naive T cells in vitro (FoxP3-GFP, flow cytometry); type: cell-based, mouse; conditions: 10 nM
Procedure: To determine whether a RARα agonist could affect T cell differentiation, T cells were incubated with a RARα agonist to determine its effect on Foxp3 expression. Naive CD4^+ CD25^− FoxP3^− cells were purified from a Foxp3-GFP mouse using flow cytometry by sorting and isolating based upon a GFP^− phenotype. These cells were activated polyclonally with αCD3 in vitro in the presence of IL-2 and TGF-β. These cells were then cultured in media with various concentrations of compound IRX5183 (a RARα agonist) and the expression of FoxP3-GFP was analyzed by flow cytometry. The RARα agonist compound IRX5183 enhanced differentiation of immunosuppressive Treg cells and inhibited differentiation of inflammatory TH17 cells from naïve T cells in vitro (Table 2).

MM cells = experiment: surface CD138 expression of MM cells (flow cytometry); type: cell-based, human; conditions: BM stromal cell co-cultures, 1 μM
Procedure: 24-well plates were coated with 0.1% gelatin in PBS for 30 min at 37° C. The gelatin solution was removed, and the stromal cells were cultured overnight at a density of 5×10^4 cells/well to obtain a confluent monolayer. At that time, MM cell lines or primary MM cells (1×10^5 in 2 ml) were added to the stroma cultures. The stroma cocultures were incubated at 37° C. in RPMI containing 10% FCS, L-glutamine, and P/S, with or without AGN194310 (1 μM for 5 days), R115866 (1 μM for 5 days), IRX5183 (1 μM for 5 days), or BTZ (2.5 nM for 48 hr).
Following treatment, MM cells were collected, washed with PBS, and stained for 15 min at room temperature with phycoerythrin-conjugated (PE-conjugated) anti-CD138. Cells were washed to remove unbound antibody and evaluated in a FACSCalibur system (BD Biosciences). Stromal cells were identified by GFP expression, and viable cells were identified using 7-aminoactinomycin D (7-AAD). To calculate cell numbers, live GFP-cells were normalized to calibration beads.
Expression of CD138 is a hallmark of normal PC differentiation as well MM PCs.

[2] = system: H929 luciferase+ (Luc+) cells; experiment: systemic MM xenograft, bioluminescence; type: in vivo, NSG mice; conditions: 4 weeks
Procedure: For the systemic MM model, 2×10^6 Luc+/GFP+ H929 cells were injected via the tail vein into 16-week-old male NSG mice. After engraftment, as determined by an exponential increase in bioluminescence, mice were treated with BTZ (0.5 mg/kg i.p.) twice weekly and with IRX (10 mg/kg) once daily. Tumor burden was assessed by bioluminescence, as above.
To test whether retinoids can enhance BTZ activity in MM, a systemic MM xenograft was developed by injecting 2×10^6 H929 luciferase+ (Luc+) cells via the tail vein of non-obese, diabetic, severe combined immunodeficiency IL-2 receptor γ-KO (NSG) mice. The animals were randomized to receive IRX, BTZ, or a combination of both, and disease burden was followed weekly by bioluminescence imaging (FIG. 6).

NB4 cells = experiment: CFU experiments off and on stroma, NB4 cells; type: cell-based; conditions: 10^−7 M ATRA, IRX5183, or 10^−8 M AM80
Excerpt: (§1) Data across three independent experiments.

OCI-AML3 cells = experiment: CFU experiments off and on stroma, OCI-AML3 cells; type: cell-based; conditions: 10^−6 M ATRA, IRX5183, or 10^−7 M AM80
Excerpt: as §1

RARα = experiment: transactivation assay, agonist activity; type: cell-based; conditions: RARα versus RARβ, RARγ; FIG. 1
Excerpt: Transactivation assays employ expression plasmids encoding the full length receptors RARα, RARβ, and RAR ? . Reporter plasmids containing the herpes virus thymidine kinase promoter and the appropriate retinoic acid receptor response element (RAREs) are positioned upstream of an open coding region encoding firefly luciferase.

H929 Luc+ cells = experiment: subcutaneous xenograft model of MM-niche interactions with WT or Smo-KO stroma, bioluminescence; type: in vivo, NSG mice; conditions: IRX 10 mg/kg i.p. daily, BTZ 0.5 mg/kg i.p. twice weekly
Procedure: 1×10^6 H929 Luc+ cells and 1×10^6 mouse BM stromal cells were resuspended in 100 μl […]®, diluted with RPMI (1:1), and injected subcutaneously into 16-week-old male NSG mice. After 4 days, treatment with BTZ (0.5 mg/kg i.p. twice weekly) and IRX (10 mg/kg i.p. daily) was initiated. Tumor burden was assessed by bioluminescence using the In Vivo Imaging System (PerkinElmer). For imaging, mice were exposed to 120 mg/kg D-luciferin via intraperitoneal injection […] before imaging and were anesthetized using isoflurane. Images were analyzed with Living Image Software, version 2.5 (PerkinElmer), and data were quantified as photons/second.
To study to what extent an RA-low environment created by the BM stroma and enhanced by MM cells via paracrine Hedgehog signaling contributes to BTZ resistance, a xenograft model of MM-niche interactions was developed. Each mouse carried 2 subcutaneous tumors consisting of H929 Luc+ cells and either WT (anterior tumors) or Smo-KO stroma (posterior tumors). Mice were treated with IRX (10 mg/kg i.p. daily), BTZ (0.5 mg/kg i.p. twice weekly), or a combination of both. The growth of tumors bearing WT or Smo-KO stroma was not different in untreated or IRX-treated groups (FIGS. 9 and 10). […] While some tumors in the treatment group receiving combined IRX and BTZ appeared to have regressed completely, even after anatomical study, this was not the case for all the mice in this group.

Kasumi-1 cells = experiment: CFU experiments off and on stroma, Kasumi-1 cells; type: cell-based; conditions: 10^−6 M ATRA, IRX5183, or 10^−7 M AM80
Excerpt: as §1

SMILES: CC1(C)CCC(C)(C)c2c1cc(C(=O)Nc1cc(F)c(C(=O)O)c(F)c1)c(O)c2Cl [IRX5183]
- Treg cell Percent Differentiation (%) [1]: 90%
- surface CD138 expression (MM cells): restored CD138 expression
- disease burden (bioluminescence) ([2]; IRX in combination with BTZ): significant (P<0.01) decrease in disease burden
- tumor burden (bioluminescence) ([2]; monotherapy, BTZ 0.5 mg/kg i.p. twice weekly, IRX 10 mg/kg once daily): decrease in tumor burden compared with untreated mice
- clonogenic growth (CFU) (NB4 cells): decrease in clonogenic growth compared to control
- clonogenic growth (CFU) (OCI-AML3 cells): decrease in clonogenic growth compared to control
- agonist activity, activation of transcription (RARα): specifically activates RARα
- growth or response of tumors bearing WT versus Smo-KO stroma (H929 Luc+ cells): not different
- clonogenic growth (CFU) (Kasumi-1 cells): decrease in clonogenic growth compared to control
